Source: PubChem BioAssay AID2305 (GlaxoSmithKline (GSK), 2010)

Tested on: P. falciparum 3D7 growth, pLDH absorbance
Test: blood-stage malaria parasite growth potency – strain 3D7, dose response (AID 2305)

In order of falling IC50:
1. COc1ccc2nccc([C@@H](O)CN3CCC(NCc4ccc5c(c4)NC(=O)CO5)CC3)c2c1  1660 nM
2. NC(=NCCc1ccccc1Cl)c1ccc2ccccc2c1  1630 nM
3. CN(C)c1ccc(-c2csc(C(=O)NCC3CCN(CCC(C)(C)C)C3)c2)cc1 (stereo not drawn)  1500 nM
4. CC(C)(CNC(=O)[C@H]1CCCN1)c1nc(-c2ccc(Cl)c(O)c2)c(-c2ccncc2)[nH]1  1270 nM
5. O=c1cc(NCCCNCc2cccc(OC(F)(F)C(F)F)c2)[nH]c2ccccc12  1270 nM
6. O=C(Nc1cccc(-c2cccc(CN3CCCC3)c2)c1)c1cccc(Cl)c1  1180 nM
7. Cc1noc(C)c1-c1ccc2c(Nc3ccccc3N3CCOCC3)c(C(=O)NCc3ccccc3)cnc2c1  1180 nM
8. Cc1ccccc1C1CCN(C2CCC(NC(=O)/C=C/c3ccc(C#N)cc3)CC2)CC1 (stereo not drawn)  1170 nM
9. N#Cc1ccc(-c2ccc(C(=O)Nc3ccc4c(c3)CCN(C3CCC3)CC4)nc2)cn1  1160 nM
10. O=C(/C=C/c1cc(C(F)(F)F)ccc1F)NCCCCCN1CCC(c2c[nH]c3ccccc23)CC1  1130 nM
11. Cc1[nH]c(-c2ccc(F)cc2)cc1C(=O)NC1CCN(Cc2ccccc2)CC1  1130 nM
12. c1cc(-c2nc3ccccc3[nH]2)nc(-c2nc3ccccc3[nH]2)c1  1120 nM
13. COc1ccc(S(=O)(=O)Nc2ccc(C(=O)NCc3ccc(C(F)(F)F)cc3)cc2)cc1N1CCN(CC2CC2)CC1  1120 nM
14. Cc1cccc(Nc2nc(C)cc(N3CCCN(CC4CCCCC4)CC3)n2)c1  1120 nM
15. Cc1cc2nc(-c3ccc(OCC(=O)NCc4ccc(C(C)(C)C)cc4)cc3)[nH]c2cc1C  1060 nM
16. Cc1cc(Nc2ccnc(-c3ccc(Cl)cc3)n2)ccn1  1040 nM
17. COc1cc(Nc2nccc(N3CCC(NC(=O)c4cccc(C#N)c4)C3)n2)cc(OC)c1OC (stereo not drawn)  990 nM
18. CS(=O)(=O)Nc1cccc(-c2cnc3[nH]cc(-c4ccc(CN)cc4)c3c2)c1  990 nM
19. CC1CC(NCCCNc2cc(=O)c3ccccc3[nH]2)c2c(Cl)c(Cl)cc(Cl)c21 (stereo not drawn)  980 nM
20. Cc1cc(N2CCCC2)nc(Nc2ccc(NC(=O)c3ccccc3)cc2)n1  980 nM
21. O=C(Nc1ccc(Cl)c(Cl)c1)N1CCC(CNCc2cccc([N+](=O)[O-])c2)CC1  980 nM
22. O=c1cc(NCCCNCc2cc(Cl)c(Cl)cc2Cl)[nH]c2ccccc12  970 nM
23. N#Cc1ccccc1C1CCN(C2CCC(Nc3cc(-c4cccnc4)ccn3)CC2)CC1 (stereo not drawn)  960 nM
24. COc1ccc(NC(=O)c2cn(-c3ccc(C(C)(C)C)cc3)nc2C)cc1N1CCN(C)CC1  950 nM
25. O=C(O)C1Cc2c([nH]c3ccccc23)C(c2ccc(Cl)cc2Cl)N1 (stereo not drawn)  950 nM
26. CN(C)CCN(C)Cc1ccc(-c2ccc(NC(=O)c3ccc(Cl)cc3)cc2)cc1  940 nM
27. COc1ccc(CN2CCC(N3CC(c4ccccc4)(c4ccccc4)OCC3=O)C2)c(O)c1 (stereo not drawn)  930 nM
28. CN1CCc2ccc(NC(=O)Nc3cccc(C(=O)c4ccccc4)c3)cc2C1  920 nM
29. COc1cc2c(c(OC)c1[N+](=O)[O-])C=CC1(O2)N(C)c2ccc([N+](=O)[O-])cc2C1(C)C (stereo not drawn)  910 nM
30. COc1ccc2nccc([C@@H](O)CN3CCC(NC(=O)Cc4cc5ccccc5s4)CC3)c2c1  910 nM
31. COc1cc(C=CC(=O)N2CCC(CCN3CCC(c4c[nH]c5ccccc45)CC3)CC2)cc(OC)c1  910 nM
32. Cc1cc(NN=Cc2ccc([N+](=O)[O-])cc2)c2ccc(F)cc2n1  890 nM
33. CC(=O)N1N=C(c2ccc(F)cc2)Sc2c1nc(C1CCCCC1)n2C(C)=O  890 nM
34. COCCn1c(Sc2ncnc3sccc23)nc2ccccc21  880 nM
35. COc1ccc(CNc2nccc3ccc(-c4ccc5nccn5c4)cc23)cc1  880 nM
36. NC(N)=NN=CC(=O)Nc1ccc(Br)cc1  880 nM
37. CCCC(C)Nc1nc(C)cc(N[C@@H](CC(C)C)C(=O)Nc2ccc(OC)cc2)n1 (stereo partly drawn)  870 nM
38. CC(C)CCn1c(Sc2ccc(C#N)c([N+](=O)[O-])c2)nnc1-c1ccc(Cl)cc1  870 nM
39. CC(C)c1ccc(-c2nc3ncc(Cl)cc3[nH]2)cc1  860 nM
40. CCN(CCCN1CCCCC1)c1cc(C)nc(Nc2cc(C(F)(F)F)ccc2C)n1  860 nM
41. CCCCCCOc1ccc(C(=O)NCCCC2CCN(CCCCCNC(=O)C=Cc3ccc(Cl)c(Cl)c3)CC2)cc1  850 nM
42. CC(C)CCNC(=O)C1Cc2c([nH]c3ccc(Br)cc23)C2(CCN(Cc3ccccc3)CC2)N1 (stereo not drawn)  820 nM
43. CCCc1cc(Cc2cnc(N)nc2N)cc(CC)c1OC  820 nM
44. OCCn1c(CNCCCNc2nc3ccccc3[nH]2)cc2c(Cl)cc(Cl)cc21  810 nM
45. CC(C)COc1ccc(Cl)cc1Cc1ccc(-c2nc3c(F)cccc3[nH]2)o1  810 nM
46. COc1ccc(-c2ncnc(C(F)(F)F)c2-c2ccc(Cl)cc2)c(O)c1  800 nM
47. Clc1ccccc1CNc1noc(-c2sccc2Br)n1  790 nM
48. OCCOCCNCc1cccc(C#Cc2cc3ncnc(Nc4ccc(OCc5cccc(F)c5)c(Cl)c4)c3s2)n1  780 nM
49. COc1ccc(C2NCCc3c2[nH]c2ccccc32)cc1CN1CCN(c2ccc(F)cc2)CC1 (stereo not drawn)  780 nM
50. O=C(/C=C/c1ccc(I)cc1)NCCCCCN1CCC(c2c[nH]c3ccc(O)cc23)CC1  770 nM
51. COc1ccc2nccc([C@@H](O)CN3CC[C@H](NCc4cnc5c(c4)NC(=O)CS5)[C@H](F)C3)c2c1  770 nM
52. COc1ccc(NC(=O)Nc2ccc(-c3cccc(-c4nc5ccccc5[nH]4)c3)cc2)cc1  760 nM
53. CCCc1ccc(NC(=O)c2cccc(CN3CCCN(Cc4cccc(O)c4)CC3)c2)cc1  750 nM
54. Oc1ccc(Cl)cc1-c1cc(C(F)(F)F)nc(-c2ccccc2)n1  750 nM
55. N=C(N)c1ccc(Nc2nccc(Nc3nc(-c4ccccc4)cs3)n2)cc1  750 nM
56. CCN1CCN(c2cc(C)c3cc(NC(=O)c4ccc(Br)o4)ccc3n2)CC1  750 nM
57. N#Cc1c(N)nc(SCC(=O)Nc2cc(C(F)(F)F)ccc2Cl)c(C#N)c1-c1cccs1  740 nM
58. Cc1ccc(Cn2ncc(N3C[C@@H](C)N[C@@H](C)C3)c(Cl)c2=O)cc1NC(=O)Nc1ccc(-c2ccccc2)cc1  740 nM
59. Cc1ccc(Nc2nc(NN=Cc3cccc(O)c3)nc(Nc3ccc([N+](=O)[O-])cc3)n2)cc1C  740 nM
60. CN(C(=O)Cc1ccc(Cl)cc1)C1CCN(CCCCCNC(=O)/C=C/c2ccc(Cl)c(Cl)c2)CC1  720 nM
61. COc1ccc(-c2ccc(NC(=O)c3ccc(C#N)cc3)cc2)cc1CN1CCN(C)CC1  720 nM
62. S=C(NCCCCCN1CCC(c2c[nH]c3ccccc23)CC1)Nc1ccc(Cl)c(Cl)c1  710 nM
63. CC(C)(C)CC(=O)Nc1ccc(Nc2cc(-c3ccncc3)cc3ncc(C(N)=O)cc23)cc1  700 nM
64. CCCc1cc(OC)c(CC2c3cc(O)c(C)cc3CCN2C)cc1OC (stereo not drawn)  700 nM
65. Cc1cccnc1Nc1nc(-c2ccccn2)cs1  690 nM
66. O=C(NCCCCN1CCN(c2ccc3c(c2)CCC3)CC1)c1ccc(NC(=O)c2ccc(Cl)cc2)cc1  680 nM
67. C=CCn1c(Sc2ccc(C#N)c([N+](=O)[O-])c2)nnc1-c1ccc(Cl)cc1  670 nM
68. O=C(Nc1cccc(-c2cccc(-c3nc4ccc(C(F)(F)F)cc4[nH]3)c2)c1)c1cccnc1Cl  660 nM
69. CNC(=O)c1ccc2nc(C3CC3)n(CC3CCN(S(=O)(=O)c4cccc(Cl)c4)CC3)c2c1  650 nM
70. CC(=O)Nc1cccc(C(=O)Nc2cccc(-c3ccc(-c4nc5ccc(C(F)(F)F)cc5[nH]4)s3)c2)c1  650 nM
71. CCNc1cc(C(=O)N[C@@H](Cc2ccccc2)[C@H](O)CNCc2cccc(-n3ccnc3)c2)cc(N2CCCC2=O)c1  630 nM
72. Cc1ccc2[nH]c(-c3ccc(/C=C/C(=O)NC4CCN(Cc5ccccc5)CC4)cc3)nc2c1C  630 nM
73. COc1cccc(CN2CCC(C(=O)Nc3ccc(-c4nc5ccccc5[nH]4)cc3)CC2)c1  630 nM
74. C=C(C)CSc1nc2c(c(=O)n1CCc1ccccc1)C1(CCCC1)Cc1ccccc1-2  610 nM
75. CCCCCCCN1CC[C@H](CC(=O)Nc2ccnc3ccc(OC)cc23)[C@@H](CC)C1  590 nM
76. CCN(CC)CCNc1nccc(N(C)c2ccc(NC(=O)Nc3cc(C(F)(F)F)ccc3F)cc2)n1  550 nM
77. O=C(/C=C/c1ccccc1)N1CCOC(CCN2CCC(c3ccccc3)CC2)(c2ccc(Cl)c(Cl)c2)C1 (stereo not drawn)  520 nM
78. O=C(Nc1ccc2c(c1)CCN2C1CCN(Cc2ccc(C(F)(F)F)cc2F)C1)c1ccco1 (stereo not drawn)  510 nM
79. COc1ccccc1N1CCN(CCCCNC(=O)c2ccc(NC(=O)c3cc(Cl)cc(Cl)c3)cc2)CC1  460 nM
80. C=C[C@H]1CN(CCCCCCC)CC[C@H]1CCN(C)c1ccnc2ccc(OC)cc12  450 nM
81. O=C(NC1CC1)c1ccc(Cn2c(SCc3cccc(Cl)c3)nc3ccccc3c2=O)cc1  420 nM
82. COc1ccc2nccc([C@@H](O)CN3CCC(NCc4ccc5c(c4)NC(=O)C(C)(C)O5)CC3)c2c1  400 nM
83. CC(C)(C)c1ccc2nc(-c3ccc(C(=O)NC4CCN(Cc5ccccc5)CC4)s3)[nH]c2c1  360 nM
84. Fc1ccc(-c2csc3ncnc(Cl)c23)cc1  330 nM
85. CCCCN(CCCC)CCCN(CCCN(CCCC)CCCC)c1cc(C)nc(Nc2ccc3cc(Br)ccc3c2)n1  320 nM
86. Cc1cccc2[nH]c(-c3ccc(-c4ccc(CN5CCN(CCN6CCOCC6)CC5)cc4)s3)nc12  240 nM
87. COc1ccc2nccc(N3CCC(CCNCc4ccc5c(n4)NC(=O)CS5)CC3)c2n1  230 nM
88. CN(C)CCOc1ccc(-c2cc(-c3ccncc3)c(-c3ccc(Cl)c(O)c3)[nH]2)cc1  220 nM
89. CC1CCC2(CC1)N=C(N)N=C(N)N2OCc1ccc(Br)c2ccccc12 (stereo not drawn)  220 nM
90. O=C1COc2ccccc2N1C/C=C(\CN1CCC(c2ccccc2)CC1)c1cc(Cl)cc(Cl)c1  210 nM
91. O=C(Nc1ccc(Br)cc1)c1cc(Br)ccc1NS(=O)(=O)c1ccc(C(F)(F)F)cc1  180 nM
92. COc1ccc(NC(=O)Nc2ccc(-c3cccc(-c4nc5c(C)cccc5[nH]4)c3)cc2)cc1  140 nM
93. Cc1[nH]c(C)c(-c2ccc(-c3ccc(Cl)cc3)nc2)c(=O)c1Cl  110 nM
94. O=C1C(c2ccccc2)=C(Nc2ccc(OC(F)(F)F)cc2)c2ccccc21  110 nM
95. O=C(Nc1cccc(-c2cccc(-c3nc4ccc(F)cc4[nH]3)c2)c1)Nc1ccc(F)c(F)c1F  90 nM
96. Cc1nc(N)nc(N)c1-c1ccc(Cl)c(Cl)c1  80 nM
97. CC[C@H]1CN2CC[C@H]1C[C@H]2[C@H](O)c1cc(-c2ccccc2F)nc2ccc(OC)cc12  80 nM
98. O=C(Nc1cc(C(F)(F)F)ccc1-n1cncn1)C1(c2ccccc2)CC1  60 nM
